Test results from patent publication US20230210999A1, “TARGETED PROTEASE DEGRADATION (TED) PLATFORM” (EUBULUS BIOTHERAPEUTICS INC., priority 2020, published 2023).
Where two headings read alike, the source gives them in different places.

Tests used:
MV4;11 cells = test: Cell proliferation experiment (Alamar blue, 72 h), MV4;11; type: cell-based, human; settings: Homo sapiens
Summary of the method: (§1)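 Log-phase cells were seeded in 96-well plates and exposed to compound in complete medium over a 5-fold dilution series, in duplicate, for 72 h. Alamar blue fluorescence was read per well and IC50 was obtained by four-parameter curve fitting.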

Daudi cells = test: Cell proliferation experiment, Daudi; type: cell-based, human; settings: Homo sapiens, Daudi
Summary of the method: as §1

U-87MG cells = test: Cell proliferation experiment, U-87MG; type: cell-based; settings: Homo sapiens, 72 h, read-out: Inhibitory activity IC50 of tested compounds on U-87MG cells
Method: (§2) Reagents: RPMI-1640 medium, McCoy's 5A medium, IMDM medium, MEM medium, L-15 medium, fetal bovine serum. Penicillin-Streptomycin double antibody, trypsin, etc., 2-mercaptoethanol, NEAA, pyruvate, etc.
(§3) The cells were cultured in conventional ways, and the cells should be passed at least 2 generations before plating. Cells at the logarithmic growth phase were collected, prepared into single cell suspensions and counted. The concentration of cells was adjusted to the desired concentration, and cells were inoculated into a 96-well cell culture plate at 100 μl per well. 100 μL of complete medium of the test compound were added to each well, set up 2 duplicate wells for each concentration, and diluted with a 5-fold gradient, and continued to culture for 72 h. All cells were subjected to IC50 test for corresponding samples. The experimental results are shown in Test Example 4.
(§4) The fluorescence intensity of each well was detected using the Alarm blue method, and IC50 was calculated.
(§5) IC50 was calculated according to the following formula:
(§6) Y=Max+(Min−Max)/[1+(X/IC50)×Slope]
(§7) wherein Min, Max and Slope represent the minimum, maximum and slope respectively.

NCIH82 cells = test: Cell proliferation experiment, NCI-H82; type: cell-based, human; settings: Homo sapiens
Summary of the method: as §1

HT-29 cells = test: Cell proliferation experiment, HT-29; type: cell-based; settings: Homo sapiens, read-out: Inhibitory activity IC50 of tested compounds on HT-29 cells
Method: as §2, §3, §4, §5, §6, §7

PC-3 = test: Cell proliferation experiment, PC-3; type: cell-based, human; settings: Homo sapiens, PC-3, PC-3 cells; read-out: Inhibitory activity IC50 on PC-3
Summary of the method: as §1

MDA-MB-231 cells = test: Cell proliferation experiment, MDA-MB-231; type: cell-based, human; settings: Homo sapiens, MDA-MB-231, MDA-MB-231 cells; read-out: Inhibitory activity IC50 on MDA-MB-231
Summary of the method: as §1

[1] = MV4-11, 72 h, MV4;11 cells, 72 h, read-out: Inhibitory activity IC50 of tested compounds on MV4;11 cells
[2] = 72 h, Daudi cells, 72 h, read-out: Inhibitory activity IC50 of tested compounds on Daudi cells
[3] = NCI-H82, 72 h, NCIH82 cells, 72 h, read-out: Inhibitory activity IC50 of tested compounds on NCIH82 cells
[4] = MV4-11, 72 h, read-out: Inhibitory activity IC50 of tested compounds on MV4;11 cells
[5] = 72 h, read-out: Inhibitory activity IC50 of tested compounds on Daudi cells
[6] = NCI-H82, 72 h, read-out: Inhibitory activity IC50 of tested compounds on NCIH82 cells
[7] = MV4-11, MV4;11 cells, read-out: Inhibitory activity IC50 on MV4;11
[8] = Daudi cells, read-out: Inhibitory activity IC50 on Daudi
[9] = NCI-H82, NCI-H82 cells, read-out: Inhibitory activity IC50 on NCI-H82

Compound | IC50 (MV4;11 cells; [1]) | IC50 (Daudi cells; [2]) | IC50 (U-87MG cells; U-87MG cells) | IC50 (NCIH82 cells; [3]) | IC50 (HT-29 cells; HT-29 cells, 72 h) | other results
CC[C@@H]1C(=O)N(C)c2cnc(Nc3ccc(C(=O)NCCCC(N)C(=O)Nc4cccc5c4CN(C4CCC(=O)NC4=O)C5=O)cc3OC)nc2N1C1CCCC1 (stereo in doubt) [Compound 856] | 100 to 1000 nM | > 1000 nM | > 1000 nM | > 1000 nM |  | 
CC[C@@H]1C(=O)N(C)c2cnc(Nc3ccc(C(=O)NCCOCCOCCOCCNCCC(=O)N[C@H](C(=O)N4C[C@H](O)C[C@H]4C(=O)NCc4ccc(-c5scnc5C)cc4)C(C)(C)C)cc3OC)nc2N1C1CCCC1 [Compound 850] | > 1000 nM | > 1000 nM | > 1000 nM | > 1000 nM | > 1000 nM | 
CC[C@@H]1C(=O)N(C)c2cnc(Nc3ccc(C(=O)NCCOCCNCC(=O)N[C@H](C(=O)N4C[C@H](O)C[C@H]4C(=O)NCc4ccc(-c5scnc5C)cc4)C(C)(C)C)cc3OC)nc2N1C1CCCC1 [Compound 851] |  |  |  |  |  | IC50 (HT-29 cells; HT-29, 72 h): > 1000 nM; IC50 (MV4;11 cells; [4]): 100 to 1000 nM; IC50 (Daudi cells; [5]): > 1000 nM; IC50 (U-87MG cells; U-87 MG): > 1000 nM; IC50 (NCIH82 cells; [6]): > 1000 nM
CC[C@@H]1C(=O)N(C)c2cnc(Nc3ccc(C(=O)NC4CCN(CCNCCOCC(=O)N[C@H](C(=O)N5C[C@H](O)C[C@H]5C(=O)NCc5ccc(-c6scnc6C)cc5)C(C)(C)C)CC4)cc3OC)nc2N1C1CCCC1 [Compound 852] | > 1000 nM | > 1000 nM | > 1000 nM | > 1000 nM | > 1000 nM | 
CC[C@@H]1C(=O)N(C)c2cnc(Nc3ccc(C(=O)NCCOCCNCCC(=O)N[C@H](C(=O)N4C[C@H](O)C[C@H]4C(=O)NCc4ccc(-c5scnc5C)cc4)C(C)(C)C)cc3OC)nc2N1C1CCCC1 [Compound 853] | > 1000 nM | > 1000 nM | > 1000 nM | > 1000 nM | > 1000 nM | 
CC[C@@H]1C(=O)N(C)c2cnc(Nc3ccc(C(=O)NCCOCCOCCOCCNCC(=O)N[C@H](C(=O)N4C[C@H](O)C[C@H]4C(=O)NCc4ccc(-c5scnc5C)cc4)C(C)(C)C)cc3OC)nc2N1C1CCCC1 [Compound 854] |  |  |  |  |  | IC50 (HT-29 cells; HT-29, 72 h): > 1000 nM; IC50 (MV4;11 cells; [4]): 100 to 1000 nM; IC50 (Daudi cells; [5]): > 1000 nM; IC50 (U-87MG cells; U-87 MG): > 1000 nM; IC50 (NCIH82 cells; [6]): > 1000 nM
CC[C@@H]1C(=O)N(C)c2cnc(Nc3ccc(C(=O)NC4CCN(CCOCCNC5CN(c6cccc7c6C(=O)N(C6CCC(=O)NC6=O)C7=O)C5)CC4)cc3OC)nc2N1C1CCCC1 (some centres unmarked) [Compound 857] | ≤ 100 nM | 100 to 1000 nM | 500 to 1000 nM | ≤ 1000 nM | > 1000 nM | 
CC[C@@H]1C(=O)N(C)c2cnc(Nc3ccc(C(=O)NC4CCN(CCOCCNCCC(=O)NC(C(=O)N5C[C@H](O)C[C@H]5C(=O)NCc5ccc(-c6scnc6C)cc5)C(C)(C)C)CC4)cc3OC)nc2N1C1CCCC1 (some centres unmarked) [Compound 858] | > 1000 nM | > 1000 nM | > 1000 nM | > 1000 nM | > 1000 nM | 
CC[C@@H]1C(=O)N(C)c2cnc(Nc3ccc(C(=O)NC4CCN(CCOCCNCC(=O)NC(C(=O)N5C[C@H](O)C[C@H]5C(=O)NCc5ccc(-c6scnc6C)cc5)C(C)(C)C)CC4)cc3OC)nc2N1C1CCCC1 (some centres unmarked) [Compound 859] |  |  |  |  |  | IC50 (HT-29 cells; HT-29, 72 h): > 1000 nM; IC50 (MV4;11 cells; [4]): 100 to 1000 nM; IC50 (Daudi cells; [5]): > 1000 nM; IC50 (U-87MG cells; U-87 MG): > 1000 nM; IC50 (NCIH82 cells; [6]): > 1000 nM
CC[C@@H]1C(=O)N(C)c2cnc(Nc3ccc(C(=O)NC4CCN(CCOCC[C@@H](N)C(=O)Nc5cccc6c5CN(C5CCC(=O)NC5=O)C6=O)CC4)cc3OC)nc2N1C1CCCC1 (some centres unmarked) [Compound 863] | 100 to 1000 nM | 100 to 1000 nM | > 1000 nM | ≤ 1000 nM | > 1000 nM | 
CC[C@@H]1C(=O)N(C)c2cnc(Nc3ccc(C(=O)NC4CCN(CCOCCO)CC4)cc3OC)nc2N1C1CCCC1 [Compound 864] | ≤ 100 nM | ≤ 100 nM | ≤ 100 nM | ≤ 1000 nM | ≤ 300 nM | 
CC[C@@H]1C(=O)N(C)c2cnc(Nc3ccc(C(=O)NC4CCN(CCO)CC4)cc3OC)nc2N1C1CCCC1 [Compound 865] | ≤ 100 nM | ≤ 100 nM | ≤ 100 nM | ≤ 1000 nM | ≤ 300 nM | 
CC[C@@H]1C(=O)N(C)c2cnc(Nc3ccc(C(=O)NC4CCN(CCOCCN)CC4)cc3OC)nc2N1C1CCCC1 [Compound 866] | ≤ 100 nM | ≤ 100 nM | 100 to 500 nM | ≤ 1000 nM | ≤ 300 nM | 
CC[C@@H]1C(=O)N(C)c2cnc(Nc3ccc(C(=O)NC4CCN(CCOCCNC5(C(=O)Nc6cccc7c6CN(C6CCC(=O)NC6=O)C7=O)CC5)CC4)cc3OC)nc2N1C1CCCC1 (some centres unmarked) [Compound 867] | ≤ 100 nM | ≤ 100 nM | 500 to 1000 nM | ≤ 1000 nM | 300 to 1000 nM | 
CC[C@@H]1C(=O)N(C)c2cnc(Nc3ccc(C(=O)NC4CCN(CCOCCN5CC(Nc6cccc7c6C(=O)N(C6CCC(=O)NC6=O)C7=O)C5)CC4)cc3OC)nc2N1C1CCCC1 (some centres unmarked) [Compound 868] | 100 to 1000 nM | 100 to 1000 nM | 500 to 1000 nM | ≤ 1000 nM | > 1000 nM | 
CC[C@@H]1C(=O)N(C)c2cnc(Nc3ccc(C(=O)NC4CCN(CCOCCNCC(O)C#Cc5cccc6c5CN(C5CCC(=O)NC5=O)C6=O)CC4)cc3OC)nc2N1C1CCCC1 (some centres unmarked) [Compound 869] | ≤ 100 nM | 100 to 1000 nM | 100 to 500 nM | ≤ 1000 nM | > 1000 nM | 
CC[C@@H]1C(=O)N(C)c2cnc(Nc3ccc(C(=O)NC4CCN(CCOC[C@@H](N)C(=O)Nc5cccc6c5CN(C5CCC(=O)NC5=O)C6=O)CC4)cc3OC)nc2N1C1CCCC1 (some centres unmarked) [Compound 870] | 100 to 1000 nM | > 1000 nM | > 1000 nM | > 1000 nM | > 1000 nM | 
CC[C@@H]1C(=O)N(C)c2cnc(Nc3ccc(C(=O)NCCOCCNCCOCCC#Cc4cccc5c4CN(C4CCC(=O)NC4=O)C5=O)cc3OC)nc2N1C1CCCC1 (some centres unmarked) [Compound 896] |  | 100 to 1000 nM | 500 to 1000 nM | > 1000 nM | > 1000 nM | 
CNC(=O)c1ccccc1Nc1nc(Nc2ccc(N3CCN(C(=O)N[C@H]4CC[C@@H](NCCC#Cc5ccc6c(c5)CN(C5CCC(=O)NC5=O)C6=O)CC4)CC3)cn2)ncc1Cl (some centres unmarked) [UB-181188] |  |  |  |  |  | IC50 (MV4;11 cells; [7]): 10 to 100 nM; IC50 (PC-3): 10 to 100 nM; IC50 (Daudi cells; [8]): 10 to 100 nM; IC50 (NCIH82 cells; [9]): 10 to 100 nM; IC50 (MDA-MB-231 cells): > 1000 nM
NC(=O)c1ccccc1Nc1nc(Nc2ccc(N3CCN(C(=O)N[C@H]4CC[C@@H](NCCC#Cc5ccc6c(c5)CN(C5CCC(=O)NC5=O)C6=O)CC4)CC3)cc2)ncc1Cl (some centres unmarked) [UB-181189] |  |  |  |  |  | IC50 (MV4;11 cells; [7]): < 10 nM; IC50 (PC-3): < 10 nM; IC50 (Daudi cells; [8]): < 10 nM; IC50 (NCIH82 cells; [9]): 10 to 100 nM; IC50 (MDA-MB-231 cells): 10 to 100 nM
NC(=O)c1ccccc1Nc1nc(Nc2ccc(N3CCN(C(=O)N[C@H]4CC[C@@H](NCCC#Cc5cccc6c5CN(C5CCC(=O)NC5=O)C6=O)CC4)CC3)cc2)ncc1Cl (some centres unmarked) [UB-181190] |  |  |  |  |  | IC50 (MV4;11 cells; [7]): < 10 nM; IC50 (PC-3): 10 to 100 nM; IC50 (Daudi cells; [8]): 10 to 100 nM; IC50 (NCIH82 cells; [9]): 10 to 100 nM; IC50 (MDA-MB-231 cells): 10 to 100 nM
NC(=O)c1ccccc1Nc1nc(Nc2ccc(C3CCN(C(=O)N[C@H]4CC[C@@H](NCC(O)CC#Cc5ccc6c(c5)CN(C5CCC(=O)NC5=O)C6=O)CC4)CC3)cc2)ncc1Cl (some centres unmarked) [UB-181194] |  |  |  |  |  | IC50 (MV4;11 cells; [7]): < 10 nM; IC50 (PC-3): > 1000 nM; IC50 (Daudi cells; [8]): > 1000 nM; IC50 (NCIH82 cells; [9]): > 1000 nM; IC50 (MDA-MB-231 cells): > 1000 nM
NC(=O)c1ccccc1Nc1nc(Nc2ccc(C3CCN(C(=O)N[C@H]4CC[C@@H](N[C@H]5C[C@H](C#Cc6ccc7c(c6)CN(C6CCC(=O)NC6=O)C7=O)C5)CC4)CC3)cc2)ncc1Cl (some centres unmarked) [UB-181198] |  |  |  |  |  | IC50 (MV4;11 cells; [7]): < 10 nM; IC50 (PC-3): 10 to 100 nM; IC50 (Daudi cells; [8]): 10 to 100 nM; IC50 (NCIH82 cells; [9]): 10 to 100 nM; IC50 (MDA-MB-231 cells): 10 to 100 nM
